Patent publication US20240350481A1, “USE OF N-MYRISTOYL TRANSFERASE (NMT) INHIBITORS IN THE TREATMENT OF CANCER, AUTOIMMUNE DISORDERS, AND INFLAMMATORY DISORDERS” (PACYLEX PHARMACEUTICALS INC., priority 2020, published 2024)
Counter-ions that a name gives are not always drawn. Residues, ends and D or L forms follow the SMILES beside them. *: point of attachment. Cbz = O=C(OCc1ccccc1)*

Tests used:
[1] = test system: BCR signaling in BL2 cells; assay: BCR signaling after anti-IgM in BL2 cells (Western blot); format: cell-based; settings: 0.1 or 1.0 μM, 48 hrs
Experimental: IM9, Ramos, SU-DHL-10 and COS-7 were purchased from ATCC. BL2, DOHH2, WSU-DLCL2 & BJAB were purchased from DSMZ (Germany). Ramos and BL2 were kind gifts of Drs. Jim Stone and Robert […] of University of Alberta. VDS isolation was described in Tosato G, et al. (reference 47). VDS, BJAB and SU-DHL-10 were kind gifts of Dr. Michael Gold of the University of British Columbia. HUVEC cells (pooled from up to 4 umbilical cords) were purchased from PromoCell. […] Cell lines were tested regularly for mycoplasma contamination using MycoAlert Plus Mycoplasma Detection Kit (Lonza, ME, USA). All cell lines tested negative for mycoplasma contamination. […] Please see supplementary Table 3 for cell line names, types and histology. For transfections, adherent cells COS-7 cells were transfected using X-tremeGENE9 DNA (Roche) transfection reagent according to manufacturer's instructions. For BCR activation experiments, cells were incubated with 25 μg/ml of Goat F(ab')2 anti-human IgM (or anti-human IgM (μ chain) showing identical BCR activation properties) for 2 minutes and the activation was stopped by the addition of 1 mM vanadate (Bio Basic Inc) solution in PBS. Protein concentrations were determined by BCA assay (Thermo Scientific) according to manufacturer's instructions. Samples were prepared for electrophoresis by the addition of 5× loading buffer and boiled for 5 min. […]

T cells = assay: Multiplex cytokine array, activated T cell supernatant; format: cell-based, human; settings: 48 h drug, then T cell activator with drug 2 more days
Experimental: (§1) Human peripheral blood mononuclear cells (PBMC) and purified T cells from healthy donors were purchased from […] Technologies (CA). Cells (7.5×10^6/ml) were cultured in the RPMI supplementing with 10% heat-inactivated fetal bovine serum (vWR), 1% penicillin/streptomycin (SigmaMillipore), 1% sodium pyruvate, and 1% non-essential amino acids (Gibco) in 24 well plates in the presence of 100 IU/ml interleukin 2 ([…] Technologies or HIV reagent program (managed by ATCC).
(§2) Then, cells were induced with T cell activator ([…]) in the presence of the drugs for 2 more days. After 4 days, the viability of treated T cells was analyzed using Flow cytometry. The supernatants for both PBMC and T cells were collected for further analysis.
The collected supernatants were analyzed for various biomarkers using multiplex cytokine array (Eve Technologies Discovery assay, Calgary, CA) either human cytokine/chemokine 71-Plex (HD71) for PBMC or human proinflammatory focused 15-Plex (HDF15) for T cells samples.

[2] = T cell viability by flow cytometry; format: cell-based; settings: human; for viability at 4 days, 20 nM: Drug 20 nM; for viability at 4 days, 100 nM: Drug 100 nM; for viability at 4 days, 500 nM: Drug 500 nM
Experimental: as §1, §2

[3] = Mouse IV; cited from earlier work
[4] = test system: Src and Lyn SFK protein levels; assay: SFK protein levels (Western blot); format: cell-based; settings: BL2 cells treated with PCLX-001, 10 μM MG132 for the last 6 hrs
Experimental: Cells were harvested, washed in cold PBS, and lysed in […] SDS-RIPA buffer (50 mM Tris-HCl pH 8.0, 150 mM NaCl, 1% Igepal CA-630, 0.5% sodium deoxycholate, 2 mM MgCL2, 2 mM EDTA with 1×complete protease inhibitor; (Roche Diagnostics) by rocking for 15 min at 4° C. The lysates were centrifuged at 16,000 g for 10 min at 4° C., and the post-nuclear supernatant was collected.
Protein concentrations were determined by BCA assay (Thermo Scientific) according to manufacturer's instructions. Samples were prepared for electrophoresis by the addition of 5× loading buffer and boiled for 5 min. If not stated otherwise, […] of total protein per lane is loaded on a 12.5% acrylamide gels. After electrophoresis, gels are transferred onto […] nitrocellulose membrane (Bio-Rad) thereafter probed with antibodies as described in materials section.

DOHH2 tumors = assay: DOHH2 xenograft, tumor growth; format: in vivo, mouse; settings: doxorubicin treatment
Experimental: DOHH2 xenograft study at Charles River's facility: […] On Day 1 of the study, animals were given a rehydration solution ad libitum in an effort to reduce dehydration during the dosing phase of the study. […] The dose volume was 10 mL/kg.

BL2 xenografts = assay: BL2 xenograft, tumor growth; format: in vivo, mouse; settings: doxorubicin
Source text: BL2 xenograft study at Jackson Laboratory: One hundred five (105) 6 week old female NOD.CB17-Prkdc scid/J (NOD scid, Stock #001303) mice were transferred to the in vivo research laboratory in Sacramento, CA. The mice were ear notched for identification and housed in individually and positively ventilated polysulfone cages with HEPA filtered air at a density of 5 mice per cage. Initially cages were changed every two weeks. The animal room was lighted entirely with artificial fluorescent lighting, with a controlled 12 hour light/dark cycle (6 am to 6 pm light). The normal temperature and relative humidity ranges in the animal rooms were 20-26° C. and 30-70%, respectively. The animal rooms were set to have up to 15 air exchanges per hour. Filtered tap water, acidified to a pH of 2.5 to 3.0, and standard lab chow were provided ad libitum.
(§3) The dose volume was 10 mL/kg.
TGI (%)=(Vcontrol−Vtreated)/(Vcontrol−Vnitial)*100.

[5] = mouse, in vivo
Experimental: Data collected were the same as in the Charles River xenograft study—clinical signs, body weight, tumor volume, blood samples from 3 mice/group for hematology and clinical chemistry (ALT, AST, BUN, creatinine, CK), and tissue samples collected and fixed from the same 3 mice. Liver, kidneys, and small intestine also were weighed.
as §3

[6] = Toxicology in DLBCL3 patient derived xenograft mice; format: in vivo, mouse; settings: within the first 7 days
Experimental: as §3

[7] = mouse, in vivo; remark: listed apart in the source
Experimental: (§4) Mice were observed daily for clinical signs of toxicity and effects on body weight. After the last dose, three mice/group were euthanized and necropsied. At euthanasia, blood samples were taken for hematology analyses and to measure AST and CK activities and bilirubin and creatinine concentrations. At necropsy, samples of samples of femur, both kidneys, liver, small intestine, and injection site were taken and fixed.
(§5) The dose volume was 10 mL/kg. At the end of the two-to three-week dosing period, mice were euthanized and three/group were necropsied. Mice that died or were euthanized early for humane reasons also were necropsied. In life, mice were monitored regularly and weighed daily, and tumors were measured with digital Vernier calipers (Mitutoyo) every other day. Tumor volume was calculated as length (mm)×width (mm)2/2; length and width were the longest and shortest diameters, respectively. At euthanasia, at the end of the dosing period blood samples were taken for hematology analyses and clinical chemistry analyses that included AST and CK activities and bilirubin and creatinine concentrations (plus ALT activity and BUN concentration in the Jackson Laboratory study). At necropsy, samples of femur, both kidneys, liver, small intestine, and injection site were collected and fixed. These were subsequently processed and examined by light microscopy for histopathologic findings. Also at necropsy, the tumors were removed and divided in two. One piece was fixed in 10% neutral buffered formalin for 24 h at room temperature and embedded in paraffin; the other was snap frozen for RNA and protein analysis. Tumor growth inhibition (TGI) for all xenograft experiments was calculated following the formula:

[8] = Toxicology in DOHH2 xenograft mice; settings: DOHH2 xenograft; Doxorubicin 3 mg/kg Once a week; normal [5-20]
Experimental: as §4, §5

[9] = purified T cells from healthy donors, T cells viability (#1)
[10] = purified T cells from healthy donors, T cells viability (#2)
[11] = purified T cells from healthy donors, T cells viability (#3)

With `Cc1nc(Nc2ncc(C(=O)Nc3c(C)cccc3Cl)s2)cc(N2CCN(CCO)CC2)n1` [dasatinib] the “HGAL and Arf1 protein levels” value [1] was “no effect”.
For `C=CC(=O)N1CCC[C@@H](n2nc(-c3ccc(Oc4ccccc4)cc3)c3c(N)ncnc32)C1` [ibrutinib], the “HGAL and Arf1 protein levels” value [1] was “no effect”.
With `Cc1nn(C)c(C)c1N[S+](=O)([O-])c1c(Cl)cc(-c2ccnc(N3CCNCC3)c2)cc1Cl` [PCLX-002] the “level of IL-5, IL-10 and IL-13” value (T cells) was “significantly reduced”, the “level of IL-6, IL-8 and IFN-gamma” value (T cells) was “significantly reduced” and the viability at 4 days, 20 nM ([2]; T cells viability (#1)) was 9%. The viability at 4 days, 100 nM ([2]; T cells viability (#1)) was 9%, the viability at 4 days, 500 nM ([2]; T cells viability (#1)) was 9% and the viability at 4 days, 20 nM ([2]; T cells viability (#2)) was 65%. The viability at 4 days, 100 nM ([2]; T cells viability (#2)) was 65%, the viability at 4 days, 500 nM ([2]; T cells viability (#2)) was 65% and the viability at 4 days, 20 nM ([2]; T cells viability (#3)) was 75%. The viability at 4 days, 100 nM ([2]; T cells viability (#3)) was 75%, the viability at 4 days, 500 nM ([2]; T cells viability (#3)) was 69% and the Clearance [3] was 5 mL/min/kg.
For `Cc1nn(C)c(C)c1CCOc1c(-c2ccc3c(c2)c(CN(C)C)nn3C)ccc(F)c1F` [IMP-1088, reference compound], the TNFa secretion (T cells) was “increasing the secretion”, the “level of IL-5, IL-10 and IL-13” value (T cells) was “significantly reduced” and the “level of IL-6, IL-8 and IFN-gamma” value (T cells) was “significantly reduced”. The viability at 4 days, 20 nM [2, 9] was 9%, the viability at 4 days, 100 nM [2, 9] was 10% and the viability at 4 days, 500 nM [2, 9] was 6%. It also gave a viability at 4 days, 20 nM [2, 10] of 61%, a viability at 4 days, 100 nM [2, 10] of 59% and a viability at 4 days, 500 nM [2, 10] of 59%. For the same molecule, the viability at 4 days, 20 nM [2, 11] was 74%, the viability at 4 days, 100 nM [2, 11] was 70% and the viability at 4 days, 500 nM [2, 11] was 70%.
For `CC(C)C[C@@H](C=O)NC(=O)[C@H](CC(C)C)NC(=O)[C@H](CC(C)C)NC(=O)OCc1ccccc1` [MG132] (Cbz-Leu-Leu-Leu-aldehyde), the “levels of the 4 SFK proteins (Src, Lyn, Hck, Lck)” value [4] was “partial or complete restoration”.
In the case of `COc1cccc2c1C(=O)c1c(O)c3c(c(O)c1C2=O)C[C@@](O)(C(=O)CO)C[C@@H]3O[C@H]1C[C@H](N)[C@H](O)[C@H](C)O1` [doxorubicin, Doxorubicin hydrochloride, reference compound], the TGI (DOHH2 tumors) is reported as 57%, the “effect on BL2 tumor growth” value (BL2 xenografts) is reported as “no effect” and the “Absolute Lymphocyte cells” value [5] is reported as 2.28 ± 0.4. The “Absolute Monocyte cells” value [5] was 0.7 ± 0.19, the Hemoglobin [5] was 13.6 ± 0.21 g/dL and the MCH [5] was 13.6 ± 0.12. For the same molecule, the ROW % [5] was 17.03 ± 0.15%, the “toxicity of doxorubicin treatment” value [6] was “severe drug toxicity and death in the majority of tumor bearing mice” and the reduced body weight [7] was “up to 8%”. It also gave an MPV [8] of 6.2 ± 0.15 fL.
